Test results: patent publication US20230190760A1, “ADVANTAGEOUS THERAPIES FOR DISORDERS MEDIATED BY IKAROS OR AIOLOS” (C4 Therapeutics, Inc., priority 2020, published 2023)

Tests used:
[1] = system: proteins in DL40 tumor lysates; test: Global proteomics of ALCL ALK+ DL40 xenograft tumors, mice treated orally with 100 μg/kg; assay type: in vivo, mouse
Protocol: NOD SCI mouse bearing ALCL ALK+DL40 xenografts were treated orally with 100 μg/kg of Compound 1. After 1, 4, 24 and 48 hour treatment, biological duplicates of tumoral cells were harvested, washed twice with PBS, and snap frozen in liquid nitrogen. Samples were resuspended in lysis buffer [8 M urea, 50 mM EPPS (pH 8.5), 50 mM NaCl, lx protease inhibitor cocktail] and lysed by sonication. Lysates were centrifuged at maximum speed, reduced for 1 hour at room temperature with 5 mM TCEP, and the cysteine residues were then alkylated with 15 mM iodoacetamide (room temperature, in dark, 30 minutes). Protein content was extracted twice by methanol-chloroform precipitation and subsequent ice-cold acetone washes. Protein pellets were resuspended in 8 M urea, 50 mM EPPS (pH 8.5) buffer and protein concentrations were measured by BCA assay. Samples were then diluted to 4 M urea with 50 mM EPPS (pH 8.5) and digested at 37° C. for 1 hour with endoproteinase Lys-C, at a 1/100 enzyme/protein ratio. The mixtures were then diluted to 1 M urea with 50 mM EPPS (pH 8.5) and trypsin was added at a 1/50 enzyme/protein ratio. The reaction was incubated overnight at 37° C. and stopped by acidification with formic acid 0.5% (v/v). Peptides were loaded on tC18 SepPak solid-phase extraction cartridges and lyophilized.
For peptide labeling, 100 μg of peptides per sample was prepared at […] concentration in 200 mM EPPS (pH 8.5), ACN was added to a final concentration of 30% and then 50 μg of each TMT 10 reagent. After 1 hour incubation at room temperature, reactions were quenched with 0.3% hydroxylamine for 15 minutes and mixed equally. The mixed sample was desalted using the tC18 SepPak solid-phase extraction cartridges, and lyophilized. Dried peptides were resuspended in 5% ACN, 10 mM NH4HCO3 pH 8 and fractionated in a basic pH reversed phase chromatography using a HPLC equipped with a 3.5 μm XBridge Peptide BEH C18 column. 96 fractions were collected, which were consolidated into 24, of which only 12 nonadjacent samples were analyzed. Samples were desalted, dried via vacuum centrifugation and reconstituted in 12 μL of 5% formic for LC-MS/MS analysis.
A third of each sample (4 μL) was separated by reversed phase chromatography using an EASY-Spray C18 column (2 μm particle size, 250 mm length×75 μm ID) mounted in an EASY-nLC 1200 LC pump coupled to an Orbitrap Fusion Lumos Tribid mass spectrometer. Peptides were separated using a 420 min gradient of 2 to 30% acetonitrile at a flow rate of ˜300 nL/min. Each analysis was performed using the multi-notch MS3 (SPS-MS3) scan. For the identification and relative quantification, all RAW files obtained from the mass spectrometer were transformed using SEQUEST-based software. Briefly, mass spectra were searched against the human Uniprot database (February 2016) concatenated with a database composed of all protein sequences in the reversed order as well as known contaminants. In all SEQUEST searches, precursor ion tolerance was set at 25 ppm and product ion tolerance at 0.9 Da, including methionine oxidation (+15.9949 Da) and cysteine carbamidomethylation (+57.0215 Da) as variable modifications. TMT tag (+229.1629 Da) on lysine residues and peptide N-termini were set as static modifications. Peptide-spectrum matches (PSMs) were performed using a linear discriminant analysis and adjusted to a […]. Peptide intensities were quantified by extracting the signal-to-noise ratio and proteins were further collapsed to a final protein-level FDR of 2%. Protein quantification values were exported to Excel, GraphPad Prism 7 or Perseus14 for further analysis.

Jeko-1 = test: Anti-proliferative activity, 96 hours; conditions: Homo sapiens, JeKo-1, 96 h
Mino = test: Anti-proliferative activity, 96 hours; conditions: Homo sapiens
[2] = system: RPMI-8226 multiple myeloma tumors; conditions: Combination
Protocol: A xenograft study was conducted in female CB17 SCID mice bearing RPMI-8226 multiple myeloma tumors. Female SCID mice were inoculated subcutaneously in the right flank with 10×10^6 tumors cells in 0.2 mL of PBS supplemented with matrigel (PBS:matrigel=1:1). Tumor volume was measured twice weekly in two dimensions using calipers, and volume was calculated using the formula: (w2×l)/2=mm^3, assuming 1 mg is equivalent to 1 mm^3 of tumor volume. […] Treatment began on Day 0 with established subcutaneous RPMI-8226 tumors with a mean tumor volume (MTV) of 130 mm^3.
All agents were administered to mice bearing RPMI-8226 tumors on day 0 and dosed until an individual moue tumor volume reached or exceeded 1000 mm^3, at which point the mouse was removed from the study and dosing stopped. […] Dexamethasone was dosed IV once a week at 5000 μg/kg and formulated in saline. […] Body weight and MTV were measured on a 2× weekly schedule. The study end point was reaching a TV greater than 1000 mm^3, at which point any mouse with a TV reaching this cut off TV was removed from the study. […] The survival analysis used was Logrank (Mantel-Cox test). Data are expressed as MTV±SEM.

KI-JK ALCL tumors = test: KI-JK ALCL xenograft efficacy (Example 20); assay type: in vivo, mice; conditions: 100 μg/kg PO daily for 21 days
Protocol: A xenograft study was conducted in female NOD SCID mice bearing KI-JK ALCL tumors.
Data are expressed as MTV±SEM.

IKZF1 and IRF-4 = test: KI-JK ALCL tumor pharmacodynamic study, western blot (Example 17); assay type: in vivo, mice; conditions: single dose, 6-hour and 24-hour timepoint
Protocol: A pharmacodynamic study was also conducted in female NOD SCID mice bearing KI-JK ALCL tumors. […] Once tumors reached a volume of 450 mm^3 they were stratified into 3 treatment groups, consisting of 4 mice each.
Mice were sacrificed and tumors harvested at 6 and 24 hours post single dose. Tumors were mechanically homogenized, and protein extracted using RIPA buffer (Sigma Aldrich). Protein concentration was quantified using a Pierce™ BCA Protein Assay Kit, samples were reduced, and equal protein amounts were then loaded onto a western blot gel for analysis. Samples were analyzed for IKZF1 (Invitrogen, PA5-23728) and IRF-4 (CST, 15106) expression. Data is expressed as percentage of IKZF1 or IRF-4 in comparison to the vehicle control and normalized to GAPDH levels to control for protein loading. Error bars represent ±SEM values.

Q: Which “Log2 FC vs Vehicle, IKZF1” value ([1]; 4 Hour) does the source give for `O=C1CC[C@H](N2C(=O)c3cccc4c(Cc5ccc(CN6CCOCC6)cc5)ccc2c34)C(=O)N1` (single isomer, unassigned) [Compound 1] here?
A: −2.466

Q: What about the “Log2 FC vs Vehicle, IKZF3” value ([1]; 4 Hour) of the same compound?
A: −2.006

Q: What about the “Log2 FC vs Vehicle, ACTA1” value ([1]; 24 Hour) of the same compound?
A: −1.089

Q: And the “Log2 FC vs Vehicle, ACTN2” value ([1]; 24 Hour)?
A: −1.304

Q: And the “Log2 FC vs Vehicle, AK1” value ([1]; 24 Hour)?
A: −1.041

Q: And the “Log2 FC vs Vehicle, APOBEC2” value ([1]; 24 Hour)?
A: −1.355

Q: What about the “Log2 FC vs Vehicle, ATP2A1” value ([1]; 24 Hour) of the same compound?
A: −1.427

Q: What about the “Log2 FC vs Vehicle, CASQ1” value ([1]; 24 Hour) of the same compound?
A: −1.333

Q: What about the “Log2 FC vs Vehicle, CKM” value ([1]; 24 Hour) of the same compound?
A: −1.248

Q: And the “Log2 FC vs Vehicle, CKMT2” value ([1]; 24 Hour)?
A: −1.544

Q: And the “Log2 FC vs Vehicle, FHL1” value ([1]; 24 Hour)?
A: −1.311

Q: And the “Log2 FC vs Vehicle, IKZF1” value ([1]; 24 Hour)?
A: −2.515

Q: And the “Log2 FC vs Vehicle, IKZF3” value ([1]; 24 Hour)?
A: −1.761

Q: What about the “Log2 FC vs Vehicle, JPH2” value ([1]; 24 Hour) of the same compound?
A: −1.117

Q: What about the “Log2 FC vs Vehicle, KLHL41” value ([1]; 24 Hour) of the same compound?
A: −1.142

Q: And the “Log2 FC vs Vehicle, LDB3” value ([1]; 24 Hour)?
A: −1.136

Q: What about the “Log2 FC vs Vehicle, MYBPC1” value ([1]; 24 Hour) of the same compound?
A: −1.366

Q: What about the “Log2 FC vs Vehicle, MYBPC2” value ([1]; 24 Hour) of the same compound?
A: −1.146

Q: What about the “Log2 FC vs Vehicle, MYH1” value ([1]; 24 Hour) of the same compound?
A: −1.258

Q: What about the “Log2 FC vs Vehicle, MYH2” value ([1]; 24 Hour) of the same compound?
A: −1.188

Q: What about the “Log2 FC vs Vehicle, MYH3” value ([1]; 24 Hour) of the same compound?
A: −1.165

Q: And the “Log2 FC vs Vehicle, MYH4” value ([1]; 24 Hour)?
A: −1.05

Q: What about the “Log2 FC vs Vehicle, MYH7” value ([1]; 24 Hour) of the same compound?
A: −2.977

Q: And the “Log2 FC vs Vehicle, MYH7B” value ([1]; 24 Hour)?
A: −1.231

Q: What about the “Log2 FC vs Vehicle, MYH13” value ([1]; 24 Hour) of the same compound?
A: −1.102

Q: What about the “Log2 FC vs Vehicle, MYL1” value ([1]; 24 Hour) of the same compound?
A: −1.3

Q: What about the “Log2 FC vs Vehicle, MYL4” value ([1]; 24 Hour) of the same compound?
A: −1.344

Q: And the “Log2 FC vs Vehicle, MYLPF” value ([1]; 24 Hour)?
A: −1.434

Q: And the “Log2 FC vs Vehicle, MYOM1” value ([1]; 24 Hour)?
A: −1.201

Q: What about the “Log2 FC vs Vehicle, NEB” value ([1]; 24 Hour) of the same compound?
A: −1.184

Q: What about the “Log2 FC vs Vehicle, OAS1” value ([1]; 24 Hour) of the same compound?
A: 1.172

Q: And the “Log2 FC vs Vehicle, PVALB” value ([1]; 24 Hour)?
A: −1.105

Q: And the “Log2 FC vs Vehicle, PYGM” value ([1]; 24 Hour)?
A: −1.139

Q: What about the “Log2 FC vs Vehicle, SPR” value ([1]; 24 Hour) of the same compound?
A: 1.088

Q: What about the “Log2 FC vs Vehicle, SRL” value ([1]; 24 Hour) of the same compound?
A: −1.252

Q: What about the “Log2 FC vs Vehicle, TNNC2” value ([1]; 24 Hour) of the same compound?
A: −1.035

Q: What about the “Log2 FC vs Vehicle, TNNI2” value ([1]; 24 Hour) of the same compound?
A: −1.377

Q: What about the “Log2 FC vs Vehicle, TPM1” value ([1]; 24 Hour) of the same compound?
A: −1.146

Q: And the “Log2 FC vs Vehicle, TRIM72” value ([1]; 24 Hour)?
A: −1.083

Q: And the “Log2 FC vs Vehicle, TTN” value ([1]; 24 Hour)?
A: −1.117

Q: And the “Log2 FC vs Vehicle, ZFP91” value ([1]; 24 Hour)?
A: −1.279

Q: What about the “fold change, IKZF1 downregulated” value ([1]; 4 hours) of the same compound?
A: 5.5

Q: And the “fold change, IKZF3 downregulated” value ([1]; 4 hours)?
A: 4.1

Q: What about the “selectivity, proteins degraded” value ([1]; 4 hours post a single dose of 100 μg/kg, >7900 proteins detected) of the same compound?
A: degrading only IKZF1/3

Q: What about the IC50 (Jeko-1) of the same compound?
A: 43.2 nM

Q: And the IC50 (Mino)?
A: 0.194 nM

Q: What about the “Median Survival” value ([2]; Compound 1 10 μg/kg PO daily, Dexamethasone 5000 μg/kg IV once a week) of the same compound?
A: 33

Q: And the “Statistical Significance Compared to Vehicle” value ([2]; survival, Logrank, Compound 1 10 μg/kg, Dexamethasone 5000 μg/kg)?
A: 0.007

Q: And the tumor volume (KI-JK ALCL tumors)?
A: reduced tumor volume

Q: And the “percentage of IKZF1 and IRF-4 compared to pomalidomide” value (IKZF1 and IRF-4)?
A: smaller
